Measurements reported in patent US20130071936A1, “FRET-BASED ZINC(II) ION INDICATOR” (The Florida State University Research Foundation, Inc., priority 2011, published 2013).

How the values were obtained:
[1] = Fluorescence response to various metal ions (metal ion selectivity); settings: indicator 3.0 μM, 1:9 water/CH3CN pH 7.2, λex 400 nm
Experimental: FIG. 8 is a chart depicting fluorescence spectroscopic responses of zinc(II) ion indicator (4) (3.0 μM, λex 400 nm) to various metal ions in 1:9 water/CH3CN mixture at pH 7.2 (30 mM of MOPS buffer). Clear bars represent intensity in the presence of various metal ions (perchlorate salt). Metal ion concentrations of Na^+, K^+, Ca^2+, Mg^2+ were 1.0 mM and for other ions 30 μM. Hatch marked bars represent the fluorescence following subsequent addition of Zn(ClO4)2 (30 μM).
The fluorescence dependence of zinc(II) ion indicator (4) on the identity of metal ion was evaluated (FIG. 8). […] The observed metal ion selectivity can be understood based on the Irving-Williams series and HSAB theory.

[2] = Fluorescence titration with ZnCl2 in aqueous/organic mixed solvent (1:9 MOPS buffer pH 7.2/CH3CN); type: binding; settings: λex 400 nm
Experimental: FIG. 9 is a graph depicting emission spectra for the titration of zinc(II) ion indicator (4) (2.5 μM) with ZnCl2 (0-22 μM) in water-CH3CN (1:9) mixture (MOPES buffer, 10 mM, pH=7.2, λex=400 nm).
The titration experiments using zinc(II) ion indicator (4) were also carried out in an aqueous/organic mixed solvent (1:9 MOPS buffer (pH 7.2)/CH3CN). […] (FIG. 9). Comparing to the observations in CH3CN, the fluorescence is rather dim. The loss of fluorescence can be explained by the hydrogen bonding interaction between the protic solvent and the carbonyl groups on NDI, which provides a non-radiative deactivation pathway. See F. Würthner, S. Ahmed, C. Thalacker and T. Debaerdemaeker, Chem. Eur. J., 2002, 8, 4742. […] By extension, the fluorescence of zinc(II) ion indicators (4) and (5) would not be affected by the fluctuations of pH within the physiological range.

[3] = Absorption and fluorescence titration of the indicator with ZnCl2 in CH3CN; type: binding
Experimental: FIG. 3 is a graph depicting fluorescence intensity increase (F/F0 at 630 nm) of zinc(II) ion indicator (4) (3.0 μM), with increasing [ZnCl2]. The solid line is the fitting curve of F/F0 vs. [Zn^2+] based on a 1:1 binding isotherm equation. See Zhu, L.; Zhong, Z.; Anslyn, E. V. J. Am. Chem. Soc. 2005, 127, 4260-4269.
FIGS. 4A and 4B are graphs depicting (4A) Absorption spectra for the titration of zinc(II) ion indicator (4) (3.0 μM) with ZnCl2 (0-18 μM) in CH3CN, and (4B) Fluorescence spectral change of zinc(II) ion indicator (4) (3.0 μM) with different concentrations of ZnCl2 (0-18 μM) in CH3CN (λex 400 nm).
FIG. 5 is a graph depicting fluorescence spectral change of zinc(II) ion indicator (4) (2.5 μM) with different concentrations of ZnCl2 (0-16 μM) in CH3CN (λex=600 nm).
The syntheses of the separate FRET donor and acceptor systems (1-3) and indicators for zinc(II) (4, 5) are described in the examples. Absorption spectrum of zinc(II) ion indicator compound (4) in CH3CN consists of two bands over 300 nm (FIG. 4A). The band centered at 346 nm corresponds to the absorption of the bipy-containing FRET donor moiety, which we term the D band. The band centered at 600 nm corresponds to the NDI moiety which is termed the A band. Upon addition of increasing amount of ZnCl2, as a result of zinc(II) coordination at the bipy moiety, the charge-transfer D band undergoes a bathochromic shift from 346 nm to 370 nm. The A band, meanwhile, experiences a slight hypochromic shift.
The fluorescence titration profile of zinc(II) ion indicator compound (4) with ZnCl2 upon excitation at 400 nm is shown in FIG. 4B. […] This signal may have arisen from the direct excitation of the NDI component. Upon addition of increasing amount of ZnCl2 from 0-18 μM, the emission at 630 nm intensifies, and reaches saturation with 12-fold enhancement in integrated intensity (See Table 1 for spectroscopic data). […] These observations are consistent with the involvement of a zinc(II)-modulated intramolecular excitation energy transfer process. Furthermore, the differed sensitivity to excitation wavelength of zinc(II) ion indicator (4) offers an opportunity to correlate [Zn^2+] and fluorescence change ratiometrically. […]
Reagents and solvents were purchased from various commercial sources and used without further purification unless otherwise stated. […] Silica and alumina gel was flame-dried under vacuum to remove absorbed moisture before use. ^1H NMR spectra were recorded at 300 MHz on a Varian Mercury spectrometer. ^13C NMR spectra were recorded at 125 MHz, on a Bruker Avance spectrometer. […] Spectrophotometric and fluorometric titrations were conducted on a Varian Cary 100 Bio UV-Visible Spectrophotometer and a Varian Cary Eclipse Fluorescence Spectrophotometer, respectively, with a 1-cm standard quartz cell. […]

COCCCNc1cc2c3c(c(NCCOc4ccc(/C=C/c5ccc(-c6ccc(COCCOCCOC)cn6)nc5)cc4)cc4c3c1C(=O)N(CCCOC)C4=O)C(=O)N(CCCOC)C2=O [Compound (4)]
fluorescence response to cadmium(II) ([1]; 30 μM metal ion): acts similarly to zinc(II) in resulting strong fluorescence from NDI | fluorescence response to iron(II) and copper(II) ([1]; 30 μM metal ion): quench fluorescence | fluorescence response to manganese(II) and lead(II) ([1]; 30 μM metal ion): fail to alter the fluorescence | fluorescence response to alkali and alkaline earth metal ions ([1]; Na+, K+, Ca2+, Mg2+ 1.0 mM): do not elicit a fluorescence response | fluorescence enhancement on increasing [Zn^2+] [2]: 3 fold | enhancement in integrated intensity of emission at 630 nm at saturation ([3]; CH3CN, ZnCl2 0-18 μM, λex 400 nm): 12 fold | D band absorption after bathochromic shift upon addition of ZnCl2 ([3]; CH3CN, increasing ZnCl2): 370 nm | fluorescence intensity on variation of zinc(II) concentration when NDI is directly excited ([3]; CH3CN, λex 600 nm): not affected much | Kd ([3]; indicator 3.0 μM, F/F0 at 630 nm vs [ZnCl2], fit to 1:1 binding isotherm, read-out: Dissociation constant Kd): 9.1 µM
